This note sets out measurements from ChEMBL document CHEMBL1287784, “A facile 1,3-dipolar cycloaddition of azomethine ylides to 2-arylidene-1,3-indanediones: synthesis of dispiro-oxindolylpyrrolothiazoles and their antimycobacterial evaluation” (2010).

In the test the test system is Mycobacterium tuberculosis. Kind of test: Antimycobacterial activity against Mycobacterium tuberculosis H37Rv by agar dilution method. The format is functional. (In general: In agar dilution the substance is mixed into plates at graded concentrations.)

Converted amounts (≈) assume the structure as drawn.

What is called MIC is the least concentration at which growth counts as inhibited. Read a high MIC as weaker potency. `CC(C)c1ccc([C@H]2[C@@H]3CSCN3[C@@]3(C(=O)Nc4ccccc43)C23C(=O)c2ccccc2C3=O)cc1` displayed an MIC of 25.3 µM (≈ 12.5 µg/mL). To `COc1ccc([C@H]2[C@@H]3CSCN3[C@@]3(C(=O)Nc4ccc(Cl)cc43)C23C(=O)c2ccccc2C3=O)cc1OC` belongs 22.9 µM (≈ 12.5 µg/mL). In turn, `COc1ccc([C@H]2[C@@H]3CSCN3[C@@]3(C(=O)Nc4ccccc43)C23C(=O)c2ccccc2C3=O)cc1OC` gave an MIC above 48.8 µM. The figure for `O=C1c2ccccc2C(=O)C12[C@@H](c1ccc(Cl)cc1)[C@@H]1CSCN1[C@@]21C(=O)Nc2ccc([N+](=O)[O-])cc21` is 2.9 µM (≈ 1.54 µg/mL). To `O=C1c2ccccc2C(=O)C12[C@@H](c1ccccc1Br)[C@@H]1CSCN1[C@@]21C(=O)Nc2ccc(Cl)cc21` belongs 2.8 µM (≈ 1.58 µg/mL); to `COc1ccc([C@H]2[C@@H]3CSCN3[C@@]3(C(=O)Nc4ccc([N+](=O)[O-])cc43)C23C(=O)c2ccccc2C3=O)cc1`, 11.9 µM (≈ 6.28 µg/mL).

`COc1ccc([C@H]2[C@@H]3CSCN3[C@@]3(C(=O)Nc4ccc([N+](=O)[O-])cc43)C23C(=O)c2ccccc2C3=O)cc1OC`: the lowest concentration to inhibit growth (MIC) was 11.2 µM (≈ 6.24 µg/mL). Consider `O=C1c2ccccc2C(=O)C12[C@@H](c1ccccc1Cl)[C@@H]1CSCN1[C@@]21C(=O)Nc2ccccc21`, for which the lowest concentration to inhibit growth (MIC) was 25.7 µM (≈ 12.5 µg/mL).

On to `O=C1c2ccccc2C(=O)C12[C@@H](c1cccc([N+](=O)[O-])c1)[C@@H]1CSCN1[C@@]21C(=O)Nc2ccccc21`, for which inhibition of growth (MIC) required 25.1 µM (≈ 12.5 µg/mL). Turning to `COc1cc([C@H]2[C@@H]3CSCN3[C@@]3(C(=O)Nc4ccc([N+](=O)[O-])cc43)C23C(=O)c2ccccc2C3=O)cc(OC)c1OC`, it took 10.6 µM (≈ 6.23 µg/mL) to inhibit growth (MIC).

Turning to `Cc1ccccc1[C@H]1[C@@H]2CSCN2[C@@]2(C(=O)Nc3ccccc32)C12C(=O)c1ccccc1C2=O`, 53.6 µM (≈ 25 µg/mL) was the least that counted as inhibitory (MIC). To `O=C1c2ccccc2C(=O)C12[C@@H](c1ccccc1)[C@@H]1CSCN1[C@@]21C(=O)Nc2ccccc21` belongs above 55.2 µM; to `CC[C@@H](CO)NCCN[C@@H](CC)CO` [ETHAMBUTOL], 7.6 µM (≈ 1.55 µg/mL).

Regarding `O=C1c2ccccc2C(=O)C12[C@@H](c1ccc(Cl)cc1)[C@@H]1CSCN1[C@@]21C(=O)Nc2ccc(Cl)cc21`, the MIC worked out at 2.99 µM (≈ 1.56 µg/mL). To `O=C1c2ccccc2C(=O)C12[C@@H](c1ccc(Br)cc1)[C@@H]1CSCN1[C@@]21C(=O)Nc2ccc([N+](=O)[O-])cc21` belongs 1.4 µM (≈ 0.807 µg/mL); to `CO[C@H]1/C=C/O[C@@]2(C)Oc3c(C)c(O)c4c(O)c(c(/C=N/N5CCN(C)CC5)c(O)c4c3C2=O)NC(=O)/C(C)=C\C=C\[C@H](C)[C@H](O)[C@@H](C)[C@@H](O)[C@@H](C)[C@H](OC(C)=O)[C@@H]1C` [RIFAMPIN], 0.1 µM (≈ 0.0823 µg/mL); to `O=C1c2ccccc2C(=O)C12[C@@H](c1ccccc1)[C@@H]1CSCN1[C@@]21C(=O)Nc2ccc([N+](=O)[O-])cc21`, 12.6 µM (≈ 6.27 µg/mL). `NNC(=O)c1ccncc1` [ISONIAZID]: the MIC amounted to 0.4 µM (≈ 0.0549 µg/mL). The figure for `COc1ccc([C@H]2[C@@H]3CSCN3[C@@]3(C(=O)Nc4ccccc43)C23C(=O)c2ccccc2C3=O)cc1` is above 51.8 µM; for `CC(C)c1ccc([C@H]2[C@@H]3CSCN3[C@@]3(C(=O)Nc4ccc(Cl)cc43)C23C(=O)c2ccccc2C3=O)cc1` it is 11.8 µM (≈ 6.24 µg/mL). The figure for `COc1cc([C@H]2[C@@H]3CSCN3[C@@]3(C(=O)Nc4ccccc43)C23C(=O)c2ccccc2C3=O)cc(OC)c1OC` is above 46.1 µM.

In the case of `COc1ccc([C@H]2[C@@H]3CSCN3[C@@]3(C(=O)Nc4ccc(Cl)cc43)C23C(=O)c2ccccc2C3=O)cc1`, inhibition of growth (MIC) required 24.2 µM (≈ 12.5 µg/mL).

On to `O=C1c2ccccc2C(=O)C12[C@@H](c1ccccc1Br)[C@@H]1CSCN1[C@@]21C(=O)Nc2ccccc21`, for which inhibition of growth (MIC) required 11.8 µM (≈ 6.27 µg/mL). `O=C1c2ccccc2C(=O)C12[C@@H](c1ccc(Cl)cc1)[C@@H]1CSCN1[C@@]21C(=O)Nc2ccccc21` displayed an MIC of 25.7 µM (≈ 12.5 µg/mL). Compared with the last molecule, the MIC is about 2.2-fold higher. To `O=C1Nc2ccc([N+](=O)[O-])cc2[C@]12N1CSC[C@H]1[C@H](c1cccc(Cl)c1Cl)[C@]21Cc2ccccc2C1=O` belongs 2.8 µM (≈ 1.55 µg/mL); to `O=C1c2ccccc2C(=O)C12[C@@H](c1ccccc1Cl)[C@@H]1CSCN1[C@@]21C(=O)Nc2ccc(Cl)cc21`, 6 µM (≈ 3.13 µg/mL); to `O=C1c2ccccc2C(=O)C12[C@@H](c1cccc(Br)c1)[C@@H]1CSCN1[C@@]21C(=O)Nc2ccc([N+](=O)[O-])cc21`, 2.7 µM (≈ 1.56 µg/mL). The figure for `COc1cc([C@H]2[C@@H]3CSCN3[C@@]3(C(=O)Nc4ccc(Cl)cc43)C23C(=O)c2ccccc2C3=O)cc(OC)c1OC` is 21.7 µM (≈ 12.5 µg/mL). To `O=C1c2ccccc2C(=O)C12[C@@H](c1ccccc1)[C@@H]1CSCN1[C@@]21C(=O)Nc2ccc(Cl)cc21` belongs 25.7 µM (≈ 12.5 µg/mL). Take `O=C1c2ccccc2C(=O)C12[C@@H](c1ccccc1Cl)[C@@H]1CSCN1[C@@]21C(=O)Nc2ccc([N+](=O)[O-])cc21`: inhibition of growth (MIC) required 5.9 µM (≈ 3.14 µg/mL). As to `O=C1c2ccccc2C(=O)C12[C@@H](c1cccc(F)c1)[C@@H]1CSCN1[C@@]21C(=O)Nc2ccc([N+](=O)[O-])cc21`, the MIC came to 3 µM (≈ 1.55 µg/mL).
